Test: Human HepG2 cell viability assay in 384 well format
Format: toxicity, cell-based
Design: dose 125 nL, time 70.5 hour; cytotoxicity at 70.5 h: concentration not given beside the values
Conditions: HepG2 cells, read-out: Inhibition

| Structure (SMILES) | cytotoxicity at 70.5 h [%] |
| --- | --- |
| COCC(=O)N1CCN(S(=O)(=O)c2cccs2)[C@H]2CS(=O)(=O)C[C@H]21 | -7.15 |
| CSCCc1c(-c2ccccc2)ncn1CC(C)(C)N1CCOCC1 | -11.9 |
| O=C1CCCN1CCC1CCCCN1C(=O)c1ccc(SCCO)cc1 (stereo not given) | -6.58 |
| COc1ccc(NC(=O)CCC2CCCN(S(=O)(=O)C3CC3)C2)c(C)c1 (stereo not given) | -6.39 |
| CCN(Cc1ccc(O)c(C(=O)O)c1)CC1CCCO1 (stereo not given) | 24.1 |
| Cc1ccsc1CN(CCN(C)C)C(=O)c1ccc(C#N)nc1 | -8.67 |
| CCC(=O)N1CCN(C(=O)CCn2cc(Cl)cn2)[C@H]2CS(=O)(=O)C[C@H]21 | -5.55 |
| Cc1cnc(C)c(N2CCN(CCCc3[nH]nc(C)c3C)CC2)n1 | 1.19 |
| CCc1n[nH]c(SCC(=O)N2C[C@@H]3CC[C@H](C2)N(CC=C(C)C)C3)n1 | 0.686 |
| COCC(=O)N1CCC(C(=O)N(C)CCCc2nccn2C)CC1 | 1.13 |
| CCN(Cc1noc(CC(C)C)n1)Cc1ccccc1C(=O)O | -6.37 |
| O=C(NC1CCCN(CCc2ccccc2)C1)c1cnccn1 (stereo not given) | -3.22 |
| CCC(C)Oc1ccc(CNCCNC(C)=O)cc1Cl (stereo not given) | -3.38 |
| Cc1nc(CN(C)Cc2csc(-c3cccs3)n2)co1 | 6.2 |
| Cc1nc2c(c(NCc3ccccc3)n1)CCN(C(=O)NC(C)C)CC2 | 30.7 |
| c1ccc(Cc2n[nH]c(C3CCOC3)n2)cc1 (stereo not given) | -3.76 |
| Cc1n[nH]c(C)c1CCNC(=O)Nc1ccc(S(C)(=O)=O)cc1 | -20 |
| CSCCC(=O)N1CCCCC1CCn1cccn1 (stereo not given) | -6.75 |
| Cc1nccn1CCC1CCCCN1Cc1cccc(CCN)c1 (stereo not given) | -1.82 |
| CN(C)C(Cn1ccnc1-c1nccn1C)c1ccccc1Cl (stereo not given) | -5.92 |
| Cc1nc[nH]c1CN1CCOC(CCNC(=O)c2ccsc2)C1 (stereo not given) | 2.08 |
| CN(Cc1ccsc1)Cc1nc(-c2ccncc2)no1 | 20.5 |

| Structure (SMILES) | cytotoxicity at 70.5 h [%] |
| --- | --- |
| Cc1ncsc1CCN(C)C(=O)CCc1nc2cccnc2n1C | -11.9 |
| CCC[C@@H]1CN(C(=O)c2cc(-c3cccs3)n(C)n2)C[C@H]1NS(C)(=O)=O | -4.08 |
| Cc1ccccc1C(CC(=O)NCc1n[nH]c(N)n1)c1ccccc1 (stereo not given) | -4.71 |
| Cc1nc(C(=O)N2CCC3(CC2)CC(=O)N(CC2CCCO2)C3)cs1 (stereo not given) | -9.89 |
| CSCCCN1CCc2nc(N(C)C)nc(N3CCC(O)CC3)c2C1 | -6.06 |
| Cc1nonc1CN1CC[C@@](O)(C2CCOCC2)[C@H](C)C1 | -11 |
| Cc1cc(CN2CCC(CNC(=O)Cc3ccc(F)cc3)C2)[nH]n1 (stereo not given) | -7.47 |
| CN(C)CCN1CC2(CCN(C(=O)c3cnccn3)CC2)OC1=O | -2.71 |
| CC(=O)c1ccc(NC(=O)NC(C(=O)N(C)C)C(C)C)cc1 (stereo not given) | -4.29 |
| O=C1NCCCc2[nH]c(C3CCCN(C(=O)C4CC4)C3)nc21 (stereo not given) | -10.4 |
| c1cc(CN2CCC(CCn3cccn3)CC2)cc(Cn2cccn2)c1 | -2.62 |
| CC(C)N1CCC(CC(=O)N2CCN(Cc3nccn3C)CC2)CC1 | -6.78 |
| O=C(CCc1cc(Cl)no1)N1CCCCC1CCn1ccnc1 (stereo not given) | -5.27 |
| COC(=O)c1cc2n(n1)CCN(C(=O)c1csc(CN(C)C)n1)C2 | -12.3 |
| CCC[C@@H]1CN(Cc2c[nH]nc2-c2ccc(OC)cc2)C[C@H]1NC(C)=O | -7.5 |
| Cc1ccsc1CN(C)Cc1ncccc1C(=O)O | -2.01 |
| Cc1csc2c(N3CCNC(C(=O)Nc4ccc(F)cc4)C3)ncnc12 (stereo not given) | -9.29 |
| CCc1ccccc1CN1CCC(N2CCCC2=O)CC1 | -8.77 |
| CN(CCN1CCCCC1=O)Cc1cc2cc3c(cc2[nH]c1=O)OCO3 | -8.86 |
| COc1ncccc1C1CC(=O)Nc2cc(NS(C)(=O)=O)ccc21 (stereo not given) | -9.6 |
| N#CC1CCCN(S(=O)(=O)c2ccc(C(=O)NCC(F)F)cc2)C1 (stereo not given) | 3.7 |
| Cc1cccc(C(C(=O)NCc2cc(C)[nH]n2)N(C)C)c1 (stereo not given) | 7.18 |

| Structure (SMILES) | cytotoxicity at 70.5 h [%] |
| --- | --- |
| COc1cccc2c1OCC(C(=O)N1CCSCC1)C2 (stereo not given) | -8.37 |
| Cc1cccc(Cc2nc3c([nH]2)CCCNC3=O)c1 | -5.33 |
| Cc1nnsc1CN(C)C(=O)CCn1cnc2ccccc21 | -9.98 |
| Cc1ccsc1[C@@H]1CCN(C(=O)CCc2cc(O)no2)C[C@H]1O | -15.1 |
| CC(C)(C)C(=O)N[C@H]1CC[C@H](Nc2nccc(-c3ccncc3)n2)C1 | -6.97 |
| COc1c(C)cnc(CN2CCCCC2CCN2CCOCC2)c1C (stereo not given) | -11.7 |
| CN(C)C[C@@H]1CN(C(=O)c2cc(S(N)(=O)=O)ccc2F)C[C@@H]1CO | -4.5 |
| COc1cccc2c1OCC(NCc1cnn(-c3ccccc3)c1)C2 (stereo not given) | 14.4 |
| COc1ccccc1OC1(C(=O)O)CCN(c2nccnc2OC)CC1 | 23.1 |
| C=C(C)COc1cccc(C(=O)N2CCC3(CC2)CN(C)CCN3C)c1 | -7.19 |
| COc1cccc(-c2cccc(N3CCC(N[C@@H]4CCOC4)CC3)c2)c1 | 2.44 |
| CCc1noc(CN(C)Cc2cc3ccc(Cl)cc3[nH]c2=O)n1 | -5.21 |
| Cc1nc2ccccc2nc1NCc1nnc2n1CCC2 | 0.938 |
| CCOC(=O)CNC(=O)N1CCc2onc(-c3ccc(Cl)cc3)c2C1 | -16.3 |
| Cc1cc(NCCNS(C)(=O)=O)nc2cc3c(cc12)CCC3 | -5.01 |
| Cc1ccc(C(=O)N2CC(C)(C)[C@@](C)(O)C2)cc1N1CCNC1=O | 0.84 |
| Cc1cc(C)c2nc(CN3CCC(CN)CC3)cc(O)c2c1 | 2.77 |
| O=C(N[C@@H]1CCNC[C@H]1O)c1ccc(O)c(Cl)c1 | -8.26 |
| Cc1ccc(C)c(-n2cc(CN3CCOCC3)c(-c3ccccc3)n2)c1 | -3.83 |
| CCOc1ccc(C(=O)N2Cc3cnc(CC(C)C)nc3C2)o1 | -4.06 |
| CCN1CCC(CC(=O)N(C)C(C)c2cncs2)CC1 (stereo not given) | -1.72 |
| CC(C)N1CCC(c2nnc(CN3CCCC3)n2C2CC2)CC1 | -4.86 |

| Structure (SMILES) | cytotoxicity at 70.5 h [%] |
| --- | --- |
| CCOCc1nc2c(c(N3CCN4CCCC4C3)n1)CCNCC2 (stereo not given) | -13.6 |
| CN1CCCC2(CCN(S(=O)(=O)c3c(Cl)nc4sccn34)C2)C1=O (stereo not given) | -5.17 |
| Cn1cccc1C(=O)N1CCC(c2nnc(Cn3ccnc3)n2C)CC1 | -5.24 |
| C[C@@H]1CN(CC(C)(C)N2CCOCC2)CC[C@@]1(O)C1CCOCC1 | 7.82 |
| CCC(C(=O)NC1CCCCC1)n1cccc(OC)c1=O (stereo not given) | -1.81 |
| Cn1cc(C(=O)N2CCCC(C(=O)CCc3ccccc3)C2)cn1 (stereo not given) | -23.4 |
| COc1ccc(OCc2nc(C(=O)N3CCCNC(=O)C3)co2)cc1 | -2.16 |
| Cc1nc(NCCSc2ccccn2)c2c(C)noc2n1 | -4.96 |
| CN(C)C(=O)c1ccc(N2CCC3(CCC(=O)N(CCO)C3)CC2)nc1 | -2.34 |
| COc1ccc2c(C)c(C(=O)NC3CCOCC3)oc2c1 | -0.242 |
| Cc1[nH]ccc1C(=O)N1C[C@H]2CC[C@@H]1CN(S(=O)(=O)N(C)C)C2 | -6.98 |
| Cc1nn(C)cc1-c1ccnc(N(C)Cc2ccon2)n1 | -5.47 |
| CC(C)=CCN1C[C@H]2CC[C@@H]1CN(Cc1coc(C)n1)C2 | -5.37 |
| COc1cccc(CC2(C(=O)O)CCN(c3nccs3)CC2)c1 | -7.32 |
| COc1cc(N2CCCC(CO)(Cc3ccccc3F)C2)ncn1 (stereo not given) | 50.5 |
| CCN1CCC2(CCC1=O)CN(C1CCOCC1)CCN2C (stereo not given) | -6.68 |
| CCCN1C[C@H]2CC[C@@H]1CN(C(=O)c1ccc(N(C)CCO)cc1)C2 | 1.16 |
| COc1ncccc1-c1nc(-c2ccccn2)nn1C1CCN(C)CC1 | -6.87 |
| c1ncn(Cc2nnc(C3CCN(C4CCOCC4)CC3)n2C2CC2)n1 | -7.09 |
| COc1cc(C(=O)N2CCC(O)(CN3CCOCC3)C(C)(C)C2)ccn1 (stereo not given) | -0.646 |
| O=C(CC(F)(F)F)N1C[C@@H]2CC[C@H](C1)N(Cc1ccccc1)C2=O | -9.7 |
| O=C1CN(Cc2cn(CC3CCCN(C4CCSCC4)C3)nn2)CCN1 (stereo not given) | 16.1 |

| Structure (SMILES) | cytotoxicity at 70.5 h [%] |
| --- | --- |
| Cc1cc(CC(=O)N2CCN(CC(C)C)[C@@H]3CS(=O)(=O)C[C@@H]32)ccc1F | 7.77 |
| CCO[C@H]1C[C@@H](O)C12CCN(C(=O)CCN1CCCC1=O)CC2 | -9.62 |
| C=Cc1ccc(C(=O)N2CCCC(Nc3ccc(F)c(F)c3)C2)cc1 (stereo not given) | 26 |
| O=C1N(Cc2cccc(F)c2F)CCCC1(O)CNCC1CCCCC1 (stereo not given) | 0.845 |
| Cc1c(CNC(=O)c2cn(CCC3CCCCN3)nn2)cnn1C (stereo not given) | -1.47 |
| O=C(O)C1c2nc[nH]c2CCN1Cc1ccccc1-c1ccccc1 (stereo not given) | -3.54 |
| O=C(NCCc1ccc2c(c1)OCO2)C1CCCN(Cc2ccco2)C1 (stereo not given) | 1.41 |
| CCC(NS(=O)(=O)c1ccc(C(=O)NC2CC2)cc1)c1cnn(C)c1 (stereo not given) | -8.25 |
| CCc1nc(CNc2cc(C)nc(-c3cccnc3)n2)cs1 | 24.1 |
| Cc1ccc(F)cc1-c1ccc(N)nc1 | 15.8 |
| Cc1cnn(C(C)C(=O)NCC2CCN(c3cnn(C)c(=O)c3)CC2)c1 (stereo not given) | -5.13 |
| Cc1cc(C(=O)N2C[C@H](c3ccccc3)[C@@H](N)C2)c2ccc(F)cc2n1 | -12.1 |
| N#Cc1cccc(C(=O)N2CCCC(O)(CO)CC2)c1 (stereo not given) | -4.07 |
| CCc1cc(-c2cc[nH]n2)nc(N2CCOCC2)n1 | 15.6 |
| CCCc1cc(CN(C)C2CCSCC2)n[nH]1 | 0.588 |
| Cc1cccc(C(C(=O)NCc2nc(-c3ncccn3)no2)N(C)C)c1 (stereo not given) | -2.35 |
| c1ccc(-c2cc(CN3CCCCCC3c3ccco3)on2)nc1 (stereo not given) | -4.66 |
| C[C@@H](N)C(=O)N1CCC(c2[nH]ncc2-c2ccccc2)CC1 | -8.76 |
| COc1cccc(CN(C)C(C)c2nccs2)c1OCCn1ccnc1 (stereo not given) | -3.88 |
| Cc1cccc2ncn(C(C)Cn3cccn3)c(=O)c12 (stereo not given) | -10.4 |
| CN1CCN([C@@H]2CCN(Cc3cccc(-n4cccn4)c3)C[C@H]2O)CC1 | 2.97 |
| CCCc1cc(N2CCC(NC3CCOCC3)CC2)nc(C)n1 | 22.8 |
